This is an account of results in US9452994B2, “Manufacturing process for pyrimidine derivatives” (Novartis AG, priority 2010, dated 2016).

This data set is described as follows: moisture uptake of solid forms at given relative humidity. The data set is classed as physicochemical.

For the molecule `Cl.Nc1cc(C(F)(F)F)c(-c2cc(N3CCOCC3)nc(N3CCOCC3)n2)cn1` [5-(2,6-Di-4-morpholinyl-4-pyrimidinyl)-4-(trifluoromethyl)pyridin-2-amine monohydrochloride], the “hygroscopicity (in words)” value is recorded as “only slightly hydroscopic”. Also, the maximum moisture uptake entry (25° C., up to 92% relative humidity) is listed as “less than 0.1%”.
`Cl.Nc1cc(C(F)(F)F)c(-c2cc(N3CCOCC3)nc(N3CCOCC3)n2)cn1.O` [5-(2,6-Di-4-morpholinyl-4-pyrimidinyl)-4-(trifluoromethyl)pyridin-2-amine monohydrate monohydrochloride] displayed a moisture uptake (75% relative humidity) of 4.4% and a moisture uptake (95% relative humidity) of 4.9%.
With `Nc1cc(C(F)(F)F)c(-c2cc(N3CCOCC3)nc(N3CCOCC3)n2)cn1` [5-(2,6-Di-4-morpholinyl-4-pyrimidinyl)-4-trifluoromethylpyridin-2-amine], the moisture uptake (85% relative humidity) is on record as 8.9%.
Take “5-(2,6-Di-4-morpholinyl-4-pyrimidinyl)-4-trifluoromethylpyridin-2-amine hemihydrate”: the moisture uptake (25% relative humidity) came out at 1.9%.
